Results reported in US11473089B2, “Aptamer for ADAMTS5 and use for aptamer for ADAMTS5” (RIBOMIC INC., priority 2017, dated 2022).

Assays:
[1] = test system: HFLS-OA cells; assay: aggrecan cleavage inhibitory activity in synovial cells; format: cell-based, human; conditions: Table 11, culture supernatant after 3 days
Description: The aggrecan cleavage inhibitory activity of the aptamers shown in SEQ ID NOs: 11(34), 28(13), 28(15), 28(18) in synovial cells was measured. The measurement was performed by the following method. Synovial cells (HFLS-OA cells) (manufactured by Cell Applications) derived from human knee osteoarthritis patients were seeded at 2×10^4 cells per well, and cultured for 16-24 hr. The culture method followed the manual of Cell Applications. After culturing, the medium was removed, the cells were washed with Basal Medium (manufactured by Cell Applications), and 500 ng of aggrecan G1-IGD-G2 (manufactured by R&D systems) diluted with Basal Medium as a substrate was added. The aptamer was added simultaneously with the substrate to the samples to be evaluated for inhibition by the aptamer. The cells were kept cultured and the culture supernatant was collected after 3 days. The added substrate is cleaved during culture by substrate-cleaving enzymes such as ADAMTS5 secreted from the HFLS-OA cells. The amount of the cleaved substrate fragment contained in the culture supernatant was quantified by the ELISA method described in Example 5. The substrate cleavage efficiency in this evaluation system was 1-8%. The nucleic acid shown in SEQ ID NO: 15 was used as a negative control.

[2] = target: T1, ADAMTS5 (Homo sapiens, UniProt Q9UNA0); assay: ADAMTS5 enzyme inhibition, aggrecan G1-IGD-G2 cleavage, sandwich ELISA detection (evaluation method 2); format: biochemical; conditions: Table 6; 2 nM aptamer; 0.2 nM ADAMTS5, 400 nM substrate, 30 min
T1 construct: purchased R&D systems
T1 sequence (Q9UNA0 262-930): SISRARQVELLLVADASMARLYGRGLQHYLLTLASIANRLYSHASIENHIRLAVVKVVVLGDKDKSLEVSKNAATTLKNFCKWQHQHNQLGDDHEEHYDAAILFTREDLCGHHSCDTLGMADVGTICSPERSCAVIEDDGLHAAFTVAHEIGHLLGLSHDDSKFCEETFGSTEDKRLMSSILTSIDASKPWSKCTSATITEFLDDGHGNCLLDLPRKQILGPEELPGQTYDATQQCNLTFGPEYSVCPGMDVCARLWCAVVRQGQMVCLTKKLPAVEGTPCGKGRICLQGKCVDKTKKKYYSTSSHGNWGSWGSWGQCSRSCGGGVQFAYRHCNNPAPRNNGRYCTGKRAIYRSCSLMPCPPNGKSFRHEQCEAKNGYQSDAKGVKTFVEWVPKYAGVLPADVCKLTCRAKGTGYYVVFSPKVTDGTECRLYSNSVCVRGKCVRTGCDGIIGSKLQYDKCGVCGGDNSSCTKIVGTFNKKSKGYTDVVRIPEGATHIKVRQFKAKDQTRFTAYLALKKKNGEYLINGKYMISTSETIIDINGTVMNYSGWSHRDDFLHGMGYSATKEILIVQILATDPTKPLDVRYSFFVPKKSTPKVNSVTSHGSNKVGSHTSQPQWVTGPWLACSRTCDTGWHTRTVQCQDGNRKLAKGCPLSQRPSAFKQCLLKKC
Description: On the other hand, the aptamers having the sequences shown by the sequences of SEQ ID NOs: 11(34)-11(35) and SEQ ID NO: 15 were evaluated by the following method (evaluation method 2). The cleavage reaction of the substrate (aggrecan G1-IGD-G2) by ADAMTS5 was performed in the same manner as in Example 1 except the following points. The differences are that the final concentrations of ADAMTS5 and the substrate were respectively 0.2 nM and 400 nM (48 μg/mL), and that the enzyme reaction time was 30 min. After the reaction, the reaction was stopped by adding an excess amount of an ADAMTS5 small molecule inhibitor. The cleaved substrate was quantified by a sandwich ELISA method using two kinds of anti-aggrecan antibodies. […] Using this, the amount of cleaved substrate can be quantified. […] The inhibition rate of the test substance was calculated using the following equation. inhibition rate (%)=(PE−Papt)/(PE−P0)×100 wherein PE is the amount of a cleaved substrate with the addition of ADAMTS5, Papt is the amount of a cleaved substrate with the addition of a test substance, and P0 is the residual amount of a cleaved substrate without the addition of ADAMTS5.
The measurement results of the inhibitory activity of the aptamers having the sequences shown in SEQ ID NOs: 11(34)-11(35) and SEQ ID NO: 15 are shown in Table 6, evaluation method 2. […] “n.d.” means not determined. […]

Question: How did the “inhibition rate (%) 3 nM” value ([1]; 3 nM aptamer) turn out when “15 (AUUGGCACGGAGACAGCGCUCGCUUCUCGAUCACCAAU; listed as RNA, chemistry not given here) [compound 15]” was run?
Answer: 10%

Question: What about the “inhibition rate (%) 30 nM” value ([1]; 30 nM aptamer) of the same substance?
Answer: 8%

Question: And the “inhibition rate (%) 300 nM” value ([1]; 300 nM aptamer)?
Answer: 37%

Question: What about the “inhibitory activity (%) evaluation method 2” value [2] of the same substance?
Answer: 16.5%
